PubChem BioAssay AID1963829 (Molecular Pharmacology Branch, DTP, NCI, 2024)

Test system: 935938-334-R-J1-PDC complex spheroid viability
Experiment: Anticancer human tumor 935938-334-R-J1-PDC patient-derived small intestine adenocarcinoma cell line growth inhibition [POLQ]
Conditions: for IC50: curve of first compound; for viability, T/C: stronger effect = lower value
Procedure, shortened: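 PDC + HUVEC + MSC complex spheroids; POLQ inhibitors ± partner drugs; top conc. at/near clinical Cmax, else 10 microM (SN-38 1 microM), half-log dilutions; 37 degrees C, 5% CO2.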

[1] = second compound 0.0316 µM, first compound 0.0316 µM
[2] = second compound 0.0316 µM, first compound 0.1 µM
[3] = second compound 0.0316 µM, first compound 0.316 µM
[4] = second compound 0.0316 µM, first compound 1 µM
[5] = second compound 0.0316 µM, first compound 3.16 µM
[6] = second compound 0.0316 µM, first compound 10 µM
[7] = second compound 0.1 µM, first compound 0.0316 µM
[8] = second compound 0.1 µM, first compound 0.1 µM
[9] = second compound 0.1 µM, first compound 0.316 µM
[10] = second compound 0.1 µM, first compound 1 µM
[11] = second compound 0.1 µM, first compound 3.16 µM
[12] = second compound 0.1 µM, first compound 10 µM
[13] = second compound 0.316 µM, first compound 0.0316 µM
[14] = second compound 0.316 µM, first compound 0.1 µM
[15] = second compound 0.316 µM, first compound 0.316 µM
[16] = second compound 0.316 µM, first compound 1 µM
[17] = second compound 0.316 µM, first compound 3.16 µM
[18] = second compound 0.316 µM, first compound 10 µM
[19] = second compound 1 µM, first compound 0.0316 µM
[20] = second compound 1 µM, first compound 0.1 µM
[21] = second compound 1 µM, first compound 0.316 µM
[22] = second compound 1 µM, first compound 1 µM
[23] = second compound 1 µM, first compound 3.16 µM
[24] = second compound 1 µM, first compound 10 µM
[25] = second compound 3.16 µM, first compound 0.0316 µM
[26] = second compound 3.16 µM, first compound 0.1 µM
[27] = second compound 3.16 µM, first compound 0.316 µM
[28] = second compound 3.16 µM, first compound 1 µM
[29] = second compound 3.16 µM, first compound 3.16 µM
[30] = second compound 3.16 µM, first compound 10 µM
[31] = second compound 10 µM, first compound 0.0316 µM
[32] = second compound 10 µM, first compound 0.1 µM
[33] = second compound 10 µM, first compound 0.316 µM
[34] = second compound 10 µM, first compound 1 µM
[35] = second compound 10 µM, first compound 3.16 µM
[36] = second compound 10 µM, first compound 10 µM
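Note: spheroids exposed to drugs for seven days before viability read.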
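Throughout, for viability, T/C: 100% = DMSO vehicle control wells.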

## COc1cccc2c1C(=O)c1c(O)c3c(c(O)c1C2=O)CC(O)(C(=O)CO)CC3OC1CC(N)C(O)C(C)O1 (stereo not drawn) + Cc1cccc(N(C)C(=O)C2C(O)CCN2c2nc(C)cc(C(F)(F)F)c2C#N)c1
Second compound 0.0316 µM
  IC50: 55.5 nM
Second compound 0.1 µM
  IC50: 87.4 nM
Second compound 0.316 µM
  IC50: 52 nM
Second compound 1 µM
  IC50: 75.3 nM
Second compound 3.16 µM
  IC50: 70.5 nM
Second compound 10 µM
  IC50: < 31.6 nM
[1]
  viability, T/C: 60.2%
[2]
  viability, T/C: 35.3%
[3]
  viability, T/C: 34.6%
[4]
  viability, T/C: 21.2%
[5]
  viability, T/C: 7.49%
[6]
  viability, T/C: 4.38%
[7]
  viability, T/C: 63.8%
[8]
  viability, T/C: 48.5%
[9]
  viability, T/C: 31.6%
[10]
  viability, T/C: 23.7%
[11]
  viability, T/C: 7.55%
[12]
  viability, T/C: 3.7%
[13]
  viability, T/C: 56.5%
[14]
  viability, T/C: 41.8%
[15]
  viability, T/C: 26.8%
[16]
  viability, T/C: 19.7%
[17]
  viability, T/C: 8.13%
[18]
  viability, T/C: 5.68%
[19]
  viability, T/C: 75.8%
[20]
  viability, T/C: 34.2%
[21]
  viability, T/C: 31.4%
[22]
  viability, T/C: 19.3%
[23]
  viability, T/C: 5.12%
[24]
  viability, T/C: 5.59%
[25]
  viability, T/C: 63.8%
[26]
  viability, T/C: 39.4%
[27]
  viability, T/C: 35.3%
[28]
  viability, T/C: 19.8%
[29]
  viability, T/C: 2.97%
[30]
  viability, T/C: 4.99%
[31]
  viability, T/C: 49.4%
[32]
  viability, T/C: 33.8%
[33]
  viability, T/C: 37.7%
[34]
  viability, T/C: 16.8%
[35]
  viability, T/C: 5.04%
[36]
  viability, T/C: 5.34%

## CCc1cc2c(N3CCc4c(cc(Cn5ccnc5)cc4-c4cn(C)nc4C(F)(F)F)C3=O)cc(C)nc2c(OC)n1 + Cc1cccc(N(C)C(=O)C2C(O)CCN2c2nc(C)cc(C(F)(F)F)c2C#N)c1
Second compound 0.0316 µM
  IC50: > 10000 nM
Second compound 0.1 µM
  IC50: > 10000 nM
Second compound 0.316 µM
  IC50: > 10000 nM
Second compound 1 µM
  IC50: > 10000 nM
Second compound 3.16 µM
  IC50: > 10000 nM
Second compound 10 µM
  IC50: > 10000 nM
[1]
  viability, T/C: 77.4%
[2]
  viability, T/C: 59%
[3]
  viability, T/C: 74%
[4]
  viability, T/C: 58.9%
[5]
  viability, T/C: 69.4%
[6]
  viability, T/C: 56.7%
[7]
  viability, T/C: 61.9%
[8]
  viability, T/C: 87%
[9]
  viability, T/C: 62.8%
[10]
  viability, T/C: 56.1%
[11]
  viability, T/C: 72%
[12]
  viability, T/C: 63%
[13]
  viability, T/C: 74.7%
[14]
  viability, T/C: 62.6%
[15]
  viability, T/C: 62.4%
[16]
  viability, T/C: 54.8%
[17]
  viability, T/C: 65.5%
[18]
  viability, T/C: 51.6%
[19]
  viability, T/C: 91.2%
[20]
  viability, T/C: 61.9%
[21]
  viability, T/C: 55.6%
[22]
  viability, T/C: 60.9%
[23]
  viability, T/C: 51.7%
[24]
  viability, T/C: 53.2%
[25]
  viability, T/C: 78.3%
[26]
  viability, T/C: 78.3%
[27]
  viability, T/C: 71.6%
[28]
  viability, T/C: 70.7%
[29]
  viability, T/C: 57.1%
[30]
  viability, T/C: 54.2%
[31]
  viability, T/C: 72.7%
[32]
  viability, T/C: 65.8%
[33]
  viability, T/C: 58.9%
[34]
  viability, T/C: 49.5%
[35]
  viability, T/C: 60.3%
[36]
  viability, T/C: 50.8%

## Nc1ccn(C2OC(CO)C(O)C2(F)F)c(=O)n1 (stereo not drawn) + COC1C(OC(N)=O)C(O)C(Oc2ccc3c(O)c(NC(=O)c4ccc(O)c(CC=C(C)C)c4)c(=O)oc3c2C)OC1(C)C
Second compound 0.0316 µM
  IC50: < 31.6 nM
Second compound 0.1 µM
  IC50: < 31.6 nM
Second compound 0.316 µM
  IC50: < 31.6 nM
Second compound 1 µM
  IC50: < 31.6 nM
Second compound 3.16 µM
  IC50: < 31.6 nM
Second compound 10 µM
  IC50: < 31.6 nM
[1]
  viability, T/C: 25.5%
[2]
  viability, T/C: 22.1%
[3]
  viability, T/C: 18.8%
[4]
  viability, T/C: 15%
[5]
  viability, T/C: 14.9%
[6]
  viability, T/C: 14.1%
[7]
  viability, T/C: 30.7%
[8]
  viability, T/C: 18.8%
[9]
  viability, T/C: 17.8%
[10]
  viability, T/C: 16.9%
[11]
  viability, T/C: 16.9%
[12]
  viability, T/C: 14.5%
[13]
  viability, T/C: 32.2%
[14]
  viability, T/C: 22.6%
[15]
  viability, T/C: 17.7%
[16]
  viability, T/C: 17.7%
[17]
  viability, T/C: 16.3%
[18]
  viability, T/C: 14.6%
[19]
  viability, T/C: 28.5%
[20]
  viability, T/C: 23.4%
[21]
  viability, T/C: 20.2%
[22]
  viability, T/C: 13.6%
[23]
  viability, T/C: 18.1%
[24]
  viability, T/C: 16.5%
[25]
  viability, T/C: 26.1%
[26]
  viability, T/C: 25.7%
[27]
  viability, T/C: 21.7%
[28]
  viability, T/C: 16.4%
[29]
  viability, T/C: 16.7%
[30]
  viability, T/C: 14.9%
[31]
  viability, T/C: 28.8%
[32]
  viability, T/C: 23.6%
[33]
  viability, T/C: 18.6%
[34]
  viability, T/C: 14.4%
[35]
  viability, T/C: 16.8%
[36]
  viability, T/C: 17.9%

## CC[C@@]1(O)C(=O)OCc2c1cc1n(c2=O)Cc2cc3c(CN(C)C)c(O)ccc3nc2-1 + COC1C(OC(N)=O)C(O)C(Oc2ccc3c(O)c(NC(=O)c4ccc(O)c(CC=C(C)C)c4)c(=O)oc3c2C)OC1(C)C
Second compound 0.0316 µM
  IC50: > 100 nM
Second compound 0.1 µM
  IC50: 80.8 nM
Second compound 0.316 µM
  IC50: 93.3 nM
Second compound 1 µM
  IC50: 90.3 nM
Second compound 3.16 µM
  IC50: 91.5 nM
Second compound 10 µM
  IC50: > 100 nM
Second compound 0.0316 µM, first compound 0.000316 µM
  viability, T/C: 90.7%
Second compound 0.0316 µM, first compound 0.001 µM
  viability, T/C: 81.6%
Second compound 0.0316 µM, first compound 0.00316 µM
  viability, T/C: 98.1%
Second compound 0.0316 µM, first compound 0.01 µM
  viability, T/C: 92.1%
[1]
  viability, T/C: 86.1%
[2]
  viability, T/C: 56.5%
Second compound 0.1 µM, first compound 0.000316 µM
  viability, T/C: 94.2%
Second compound 0.1 µM, first compound 0.001 µM
  viability, T/C: 81.4%
Second compound 0.1 µM, first compound 0.00316 µM
  viability, T/C: 100%
Second compound 0.1 µM, first compound 0.01 µM
  viability, T/C: 90.9%
[7]
  viability, T/C: 79%
[8]
  viability, T/C: 43%
Second compound 0.316 µM, first compound 0.000316 µM
  viability, T/C: 94.7%
Second compound 0.316 µM, first compound 0.001 µM
  viability, T/C: 72.9%
Second compound 0.316 µM, first compound 0.00316 µM
  viability, T/C: 103%
Second compound 0.316 µM, first compound 0.01 µM
  viability, T/C: 97.7%
[13]
  viability, T/C: 94.8%
[14]
  viability, T/C: 47.2%
Second compound 1 µM, first compound 0.000316 µM
  viability, T/C: 109%
Second compound 1 µM, first compound 0.001 µM
  viability, T/C: 83.1%
Second compound 1 µM, first compound 0.00316 µM
  viability, T/C: 76.4%
Second compound 1 µM, first compound 0.01 µM
  viability, T/C: 74.8%
[19]
  viability, T/C: 97.3%
[20]
  viability, T/C: 46.3%
Second compound 3.16 µM, first compound 0.000316 µM
  viability, T/C: 127%
Second compound 3.16 µM, first compound 0.001 µM
  viability, T/C: 76.6%
Second compound 3.16 µM, first compound 0.00316 µM
  viability, T/C: 79.3%
Second compound 3.16 µM, first compound 0.01 µM
  viability, T/C: 77%
[25]
  viability, T/C: 104%
[26]
  viability, T/C: 46.4%
Second compound 10 µM, first compound 0.000316 µM
  viability, T/C: 109%
Second compound 10 µM, first compound 0.001 µM
  viability, T/C: 133%
Second compound 10 µM, first compound 0.00316 µM
  viability, T/C: 89.3%
Second compound 10 µM, first compound 0.01 µM
  viability, T/C: 67.2%
[31]
  viability, T/C: 71.7%
[32]
  viability, T/C: 49.3%
